# “Also recorded” adds a separate entry of the source.
# What was measured:
# [1] = system: UMUC3, RT4, A2780, OVCAR8 and A549 cancer cell lines; test: Transepithelial electric resistance (TER) in other cancer cell lines; assay type: cell-based, human
# Procedure: (§1) Cells were plated on Transwell filters (0.4 μm pore size) and grown to confluency in complete medium (RPMI1640 containing 10% fetal bovine serum, 20 mM HEPES and antibiotics). TER of the cultures (in duplicate wells) was measured at several time intervals with EVOM volt-ohm meter as previously described (Shah et al, 2009). The readings were corrected for blank (TER values from the filter in bathing medium). The integrity and cell density of monolayers were carefully monitored.
# Next, whether CTR destabilizes tight junctions and increases invasion in these cancers was tested by examining the effect of CT on transepithelial electric resistance (TER), paracellular permeability (PCP) and invasion in cancer cell lines derived from bladder cancer (UMUC3 and RT4), ovarian cancer (A2780 and OVCAR8), and lung cancer (A549). Prostate cancer cell line PC-3CTR was used a reference line. […] This was further confirmed by the actions of CT on PCP (FIG. 26A) and cell invasion (FIG. 26B). […] The role of CT-CTR axis is to destabilize junction complexes and increase invasion in cancers as diverse as prostate, bladder, lung and ovarian cancers.
# [2] = system: calcitonin receptor (CTR); test: cAMP accumulation (radioimmunoassay) in PC-3 CTRwt and PC-3 CTRΔESS cells; assay type: cell-based, human; details: 3 min
# Procedure: PC-3CTRwt and PC-3CTRΔESS cells were treated with/without 50 nM CT for three min, washed and harvested in lysis buffer (50 mM Tris, pH 7.5, containing 5 mM EDTA, 50 mM NaF, 1 mM sodium pyrophosphate, 0.5 mM EGTA, 10 mM β-mercaptoethanol, leupeptin, 1 μg/ml; and aprotinin, 1 μg/ml). The lysates were analyzed for cAMP levels by radioimmunoassay (Perkin Elmer, Shelton, Conn.).
# FIG. 1C depicts photomicrographs showing CTRwt and CTRΔESS (a mutant) localized to the plasma membrane (at 400×) in PC-3 cells. To examine the ability of CTRwt and CTRΔESS to activate its G protein-coupled effectors, the effect of 50 nM CT was examined on cAMP accumulation and PKA and PKC activity. […] FIG. 1D depicts the effect of 50 nM CT on cAMP accumulation in PC-3 CTRwt and PC-3 CTRΔESS cells stimulated with or without 50 nM CT for 3 min. The cells were lysed, and the lysates were analyzed for cAMP levels by radioimmunoassay (*p<0.01 (paired t-test)).
# The effect of CT on cAMP was further tested in a dose-response study where the response to CT at multiple doses (between 0-100 nM) was examined. FIG. 1G depicts cAMP accumulation in PC-3 CTR and PC-3 CTRΔESS cells in response to CT at multiple doses (between 0-100 nM) stimulated for 3 min (*p<0.01 (One-way ANOVA and Newman-Keuls test)).
# [3] = system: LNCaP, PC-3M and DU-145 cell lines; test: Transepithelial electric resistance (TER); assay type: cell-based; details: 50 nM CT
# Procedure: as §1
# Whether CT produces similar effects in LNCaP, PC-3M and DU-145 cell lines, which endogenously express CTR, was examined as shown in FIG. 1A. FIGS. 9A-9B depict the effect of CT on tight junction (TJ) disruption as measured using TER and PCP in the three prostate cancer cell lines—LNCaP, PC-3M, and DU-145. […] In FIG. 9B, cells were treated with and without 50 nM CT, and PCP determined by diffusion of ˜4 kDa TRITC-conjugated dextran from the upper to the lower chamber in one hour. The results are expressed as μg/ml/hour of TRITC-Dextran diffused ±SEM (n=6; *p<0.05 (−CT v +CT, One way ANOVA and Newman-Keul's test)). […] Cells were added to upper insert of invasion chambers with or without 50 nM CT, and cells that passed through the Matrigel™ barrier were counted after 48 h. The results are expressed as mean number of invaded cells per 400× field ±SEM (n=6; *p<0.05).
# ZO-1 and claudin 3 = test: In vivo 32P phosphorylation and phosphoserine/phosphothreonine immunoblotting; assay type: cell-based
# Procedure: Postconfluent cells cultured were serum-starved overnight, and then labeled with [^32P]orthophosphate (NEN/DuPont Chemicals) in phosphate-free serum-free Dulbecco's modified Eagle's medium for 3 hours at 37° C. The cells were then treated with calcitonin (CT) (50 nM for 10 min, 37° C.). When used, myristoylated PKA-inhibitory peptide (mPKI; 100 nM) was added 15 min prior to the addition of CT (50 nM). The cells were then washed with ice-cold phosphate-buffered saline, and lysed in 700 μl lysate buffer. The lysate was cleared by centrifugation for 10 min at 10,000×g. For immunoprecipitation, the supernatant was incubated overnight with primary antibody, and Protein A-Sepharose (40 μl, GE Healthcare) was added next morning. Washed immune complexes were fractionated on SDS-PAGE. The gels were either dried and exposed to film or transferred onto polyvinylidene difluoride membranes and immunoblotted as described above.
# The IPs were processed for immunoblotting with either anti-phosphoserine or anti-phosphothreonine antibodies followed by secondary antibody and developed with ECL To control for protein loading and transfer, the blots were stripped and reprobed with the immunoprecipitating antibody.
# To directly examine the involvement of PKA in CTR action on TJ disassembly, the in vivo incorporation of ^32PO4 in TJ proteins was examined. […] Arrows indicate location of ZO-1 and claudin-3. FIG. 17B depicts the total amount of ^32P-radioactivity of IP bands of ZO-1 and claudin from cells treated with CT (CT) and without treatment (Control, C). […] The results of occludin were inconclusive (data not shown).
# Next, the phosphorylated amino acids in these proteins were identified by probing ZO-1 and claudin 3 immunoprecipitates with antisera against phosphoserine, phosphothreonine and phosphotyrosine. […] The blots were probed by antibodies to phosphoserine (Ser), phosphothreonine (Thr), and phosphotyrosine (Tyr). […] There was complete absence of phosphotyrosines in either of these TJ proteins, consistent with the role of PKA in CTR-stimulated phosphorylation of ZO-1 and claudin 3.
# As shown above, the interaction of CTR with ZO-1 occurs between CTR-C PDZ-binding motif and PDZ3 domain of ZO-1. […] To examine the role of CTR-C PDZ-binding motif on phosphorylation of TJ proteins, the serine/threonine phosphorylation of ZO-1 and claudin 3 was analyzed in PC-3CTRwt and PC-3CTRΔESS cells. […] The immunoprecipitates were then probed with antibodies to phosphoserine. […] The immunoprecipitates were then probed with antibodies to phosphothreonine. The IPs of ZO-1 and claudin 3 were immunoblotted and probed for phosphoserine and phosphothreonine.
# Chain of calcitonin receptor (CTR) (P30988 25-470 limits assumed): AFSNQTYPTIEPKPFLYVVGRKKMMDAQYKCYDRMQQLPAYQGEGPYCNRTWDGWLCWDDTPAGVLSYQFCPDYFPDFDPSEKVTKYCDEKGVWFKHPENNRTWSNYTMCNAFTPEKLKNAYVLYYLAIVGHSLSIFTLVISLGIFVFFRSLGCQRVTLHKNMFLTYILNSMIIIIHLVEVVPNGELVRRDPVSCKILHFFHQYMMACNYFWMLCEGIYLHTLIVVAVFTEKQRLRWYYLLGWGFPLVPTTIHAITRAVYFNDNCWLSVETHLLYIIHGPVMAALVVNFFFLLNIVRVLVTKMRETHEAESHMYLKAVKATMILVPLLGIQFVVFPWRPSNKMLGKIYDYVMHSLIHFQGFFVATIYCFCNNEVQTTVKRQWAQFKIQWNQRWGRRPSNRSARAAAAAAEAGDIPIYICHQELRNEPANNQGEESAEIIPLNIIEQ
substance,measurement,setting,value
calcitonin [CT],response to CT,[1]; aggressive cell lines,responded extremely well
same,response to CT,[1]; well-differentiated lines RT4 and OVCAR8,responded poorly
same,TER,"[1]; with CT, all these cell lines",decreased TER
same,cAMP accumulation,"[2]; 50 nM CT, PC-3 CTRwt and PC-3CTRΔESS cells",stimulated cAMP production
same,"cAMP accumulation, dose-response","[2]; CT 0-100 nM, CTRwt and CTRΔESS cells, all doses",significantly increased
same,TER,[3],reduced TER
same,32P incorporation in immunoprecipitated ZO-1 and claudin 3,ZO-1 and claudin 3; CT 50 nM,ten-fold increase
same,incorporation of 32PO4 in ZO-1 and claudin 3 (autoradiogram),"ZO-1 and claudin 3; CT 50 nM, 10 min",remarkable increase
same,serine/threonine phosphorylation of ZO-1 and claudin 3,"ZO-1 and claudin 3; CT 50 nM, PC-3CTRwt cells",stimulated phosphorylation of serines and threonines in ZO-1 and only threonines in claudin-3; also recorded: detectable increase
same,phosphorylation of ZO-1 and claudin 3,"ZO-1 and claudin 3; CT, PC-3CTRΔESS cells",did not induce phosphorylation

# Source: patent US9765115B2, “Inhibitors of metastasis, methods of generating such inhibitors and their therapeutic applications” (Board of Supervisors of Louisiana State University acting …, priority 2011, dated 2017)
